Laboratory results reported in US4060524A, “6-Acylamido-2,2-dimethyl-3-(pyrimidin-4,6-dione-2-yl)penams” (Pfizer Inc., priority 1976, dated 1977).
≈ marks a conversion by molar mass, not a printed value.

How the values were obtained:
Test in all cases: in vitro MIC, two-fold serial dilution in brain-heart infusion medium
Assay type in all cases: cell-based
[1] = test system: Pasteurella multocida 59A001
Experimental: (§1) The in vitro activity of the herein-described compounds renders them useful for topical application in the form of ointments, creams and the like, or for sterilization purposes, e.g., sickroom utensils. For topical application, the dosage level is on the order of from about 10 to 200 mg./kg./day.
(§2) The in vitro (MIC) values for 6-(phenylacetamido)-2,2-dimethyl-3-(pyrimidin-4,6-dione-2-yl)penam against several organisms is presented below: […]

[2] = test system: Staphylococcus aureus 01A099
Experimental: as §1, §2

[3] = test system: Staphylococcus aureus 01AA005
Experimental: as §1, §2

[4] = test system: Streptococcus pyogenes 02C203
Experimental: as §1, §2

- MIC [1]: 50 µg/mL (≈ 125 µM)
- MIC [2]: 50 µg/mL (≈ 125 µM)
- MIC [3]: 50 µg/mL (≈ 125 µM)
- MIC [4]: 3.12 µg/mL (≈ 7.79 µM)
SMILES: CC1(C)S[C@@H]2[C@H](NC(=O)Cc3ccccc3)C(=O)N2[C@H]1C1=NC(=O)CC(=O)N1 [6-Phenylacetamido-2,2-dimethyl-3-(pyrimidin-4,6-dione-2yl)penam]
